Molecular target: full-length human recombinant BTK (Homo sapiens (Human), UniProt Q06187)
Assay: Inhibition of Btk enzymatic activity (biochemical enzyme assay, Caliper)
Details: 30° C., 60 minutes
Description: The inhibitory activity of the present compounds against Btk was assessed in a biochemical enzyme assay. Assay plates in 384 well format were prepared with 8-point serial dilutions for the test compounds on a Thermo CatX workstation equipped with a Innovadyne Nanodrop Express. The assay plates were prepared by addition of 50 nl per well of compound solution in 90% DMSO. The kinase reactions were started by stepwise addition of 4.5 μl per well of peptide/ATP-solution (4 μM FITC-Ahx-[…]-NH2, 164 μM ATP) in kinase buffer (50 mM HEPES, pH 7.5, 1 mM DTT, 0.02% Tween20, 0.02% BSA, 0.6% DMSO, 10 mM beta-glycerophosphate, and 10 μM sodium orthovanadate, 18 mM MgCl2, 1 mM MnCl2) and 4.5 μl per well of enzyme solution (6.4 nM full-length human recombinant BTK) in kinase buffer. Kinase reactions were incubated at 30° C. for 60 minutes and subsequently terminated by addition of 16 μl per well of stop solution (100 mM HEPES pH 7.5, 5% DMSO, 0.1% Caliper coating reagent, 10 mM EDTA, and 0.015% Brij35). Kinase reactions were analyzed on a Caliper LC3000 workstation by separating phosphorylated and unphosphorylated peptides and kinase activities were calculated from the amounts of newly formed phospho-peptide. Inhibition data were calculated by comparison to control reactions without enzyme (100% inhibition) and without inhibitors (0% inhibition). The concentration of inhibitor required for 50% inhibition (IC50) was calculated from the inhibition in response to inhibitor concentrations.

Sequence of full-length human recombinant BTK (Q06187 whole entry): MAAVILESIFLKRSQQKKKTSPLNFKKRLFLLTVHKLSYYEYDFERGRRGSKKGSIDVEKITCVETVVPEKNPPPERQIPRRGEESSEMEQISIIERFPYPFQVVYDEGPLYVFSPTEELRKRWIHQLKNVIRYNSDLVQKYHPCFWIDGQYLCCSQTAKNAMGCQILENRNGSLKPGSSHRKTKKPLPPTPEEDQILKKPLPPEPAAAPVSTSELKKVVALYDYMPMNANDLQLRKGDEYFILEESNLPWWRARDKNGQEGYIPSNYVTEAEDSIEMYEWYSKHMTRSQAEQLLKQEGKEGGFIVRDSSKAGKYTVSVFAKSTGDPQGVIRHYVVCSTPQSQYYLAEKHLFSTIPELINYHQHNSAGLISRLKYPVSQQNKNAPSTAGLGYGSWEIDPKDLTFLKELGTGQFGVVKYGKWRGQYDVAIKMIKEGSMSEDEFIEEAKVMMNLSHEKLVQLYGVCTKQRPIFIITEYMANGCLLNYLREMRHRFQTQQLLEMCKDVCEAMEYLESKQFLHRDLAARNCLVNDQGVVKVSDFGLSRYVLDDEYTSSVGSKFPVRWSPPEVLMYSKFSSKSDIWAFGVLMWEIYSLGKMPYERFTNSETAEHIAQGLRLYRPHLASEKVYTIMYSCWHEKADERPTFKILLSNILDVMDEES

| IC50 | SMILES |
| --- | --- |
| 24 nM | Cc1c(NC(=O)c2ccc(C(C)(C)C)cc2)cccc1-c1ncnc2[nH]c(C3=CC[S+]([O-])CC3)cc12 (centres unmarked) [Example 52, 4-tert-Butyl-N-{2-methyl-3-[6-(3,6-dihydro-1-oxido-2H-thiopyran-4-yl)-7H-pyrrolo[2,3-d]pyrimidin-4-yl]-phenyl}-benzamide] |
| 3 nM | Cc1c(NC(=O)c2ccc3c(C)c[nH]c3c2)cc(F)cc1-c1ncnc2[nH]c(C3=CCN(C(=O)N(C)C)CC3)cc12 [Example 5, 3-Methyl-1H-indole-6-carboxylic acid {3-[6-(1-dimethylcarbamoyl-1,2,3,6-tetrahydro-pyridin-4-yl)-7H-pyrrolo[2,3-d]pyrimidin-4-yl]-5-fluoro-2-methyl-phenyl}-amide] |
| 30 nM | Cc1c(NC(=O)c2ccc(C(C)(C)C)cc2)cc(F)cc1-c1ncnc2[nH]c(C3=CCN(S(C)(=O)=O)CC3)cc12 [Example 42, 4-tert-Butyl-N-{5-fluoro-3-[6-(1-methanesulfonyl-1,2,3,6-tetrahydro-pyridin-4-yl)-7H-pyrrolo[2,3-d]pyrimidin-4-yl]-2-methyl-phenyl}-benzamide] |
| 17 nM | Cc1c(NC(=O)c2ccc(N(C)C)cc2)cc(F)cc1-c1ncnc2[nH]c(C3=CCN(C(=O)N(C)C)CC3)cc12 [Example 15, 4-{4-[3-(4-Dimethylamino-benzoylamino)-5-fluoro-2-methyl-phenyl]-7H-pyrrolo[2,3-d]pyrimidin-6-yl}-3,6-dihydro-2H-pyridine-1-carboxylic acid dimethylamide] |
| 34 nM | Cc1c(NC(=O)c2ccc(S(F)(F)(F)(F)F)cc2)cc(F)cc1-c1ncnc2[nH]c(C3=CCN(C(=O)N4CCCC4)CC3)cc12 [Example 34, N-(5-Fluoro-2-methyl-3-{6-[1-(pyrrolidine-1-carbonyl)-1,2,3,6-tetrahydro-pyridin-4-yl]-7H-pyrrolo[2,3-d]pyrimidin-4-yl}-phenyl)-4-(pentafluoro-sulfanyl)-benzamide] |
| 3 nM | Cc1c(NC(=O)N2Cc3ccc(F)cc3C2)cc(F)cc1-c1ncnc2[nH]c(C3=CCN(C(=O)N(C)C)CC3)cc12 [Example 59, 5-Fluoro-1,3-dihydro-isoindole-2-carboxylic acid {3-[6-(1-dimethylcarbamoyl-1,2,3,6-tetrahydro-pyridin-4-yl)-7H-pyrrolo[2,3-d]pyrimidin-4-yl]-5-fluoro-2-methyl-phenyl}-amide] |
| 6 nM | Cc1c(NC(=O)c2ccc(C3CC3)cc2)cc(F)cc1-c1ncnc2[nH]c(C3=CCN(C(=O)N4CCCC4)CC3)cc12 [Example 30, 4-Cyclopropyl-N-(5-fluoro-2-methyl-3-{6-[1-(pyrrolidine-1-carbonyl)-1,2,3,6-tetrahydro-pyridin-4-yl]-7H-pyrrolo[2,3-d]pyrimidin-4-yl}-phenyl)-benzamide] |
| 3 nM | CC(=O)OCC(=O)N1CC=C(c2cc3c(-c4cc(F)cc(NC(=O)c5ccc(C6CC6)cc5)c4C)ncnc3[nH]2)CC1 [Example 31, Acetic acid 2-(4-{4-[3-(4 cyclopropyl-benzoylamino)-5-fluoro-2-methyl-phenyl]-7H-pyrrolo[2,3-d]pyrimidin-6-yl}-3,6-dihydro-2H-pyridin-1-yl)-2-oxo-ethyl ester] |
| 23 nM | Cc1c(NC(=O)c2ccc(C(C)(C)C)cc2)cc(F)cc1-c1ncnc2[nH]c(C3=CCN(C(=O)N(C)C)CC3)cc12 [Example 41, 4-{4-[3-(4-tert-Butyl-benzoylamino)-5-fluoro-2-methyl-phenyl]-7H-pyrrolo[2,3-d]pyrimidin-6-yl}-3,6-dihydro-2H-pyridine-1-carboxylic acid dimethylamide] |
| 5 nM | Cc1c(NC(=O)c2ccc(S(F)(F)(F)(F)F)cc2)cc(F)cc1-c1ncnc2[nH]c(C3=CCN(C(=O)N(C)C)CC3)cc12 [Example 11, 4-(4-{5-Fluoro-3-[4-pentafluorothio-benzoylamino]-2-methyl-phenyl}-7H-pyrrolo[2,3-d]pyrimidin-6-yl)-3,6-dihydro-2H-pyridine-1-carboxylic acid dimethylamide] |
| 46 nM | Cc1c(NC(=O)c2ccc(C(C)(C)C)cc2)cc(F)cc1-c1ncnc2[nH]c(C3=CCC(O)CC3)cc12 (centres unmarked) [Example 28, 4-tert-Butyl-N-{5-fluoro-3-[6-(4-hydroxy-cyclohex-1-enyl)-7H-pyrrolo[2,3-d]pyrimidin-4-yl]-2-methyl-phenyl}-benzamide] |
| 26 nM | CN(C)C(=O)N1CC=C(c2cc3c(-c4cccc(NC(=O)c5ccc(C(C)(C)C)cc5)c4CO)ncnc3[nH]2)CC1 [Example 37, 4-{4-[3-(4-tert-Butyl-benzoylamino)-2-hydroxymethyl-phenyl]-7H-pyrrolo[2,3-d]pyrimidin-6-yl}-3,6-dihydro-2H-pyridine-1-carboxylic acid dimethylamide] |
| 4 nM | CC(C)(C)c1ccc(C(=O)Nc2cccc(-c3ncnc4[nH]c(C5=CCC(O)CC5)cc34)c2CO)cc1 (centres unmarked) [Example 55, 4-tert-Butyl-N-{3-[6 (4 hydroxy-cyclohex-1-enyl)-7H-pyrrolo[2,3-d]pyrimidin-4-yl]-2-hydroxymethyl-phenyl}-benzamide] |
| 24 nM | CC(C)(C)c1ccc(C(=O)Nc2cccc(-c3ncnc4[nH]c(C5=CCC6(CC5)OCCO6)cc34)c2CO)cc1 [Example 54, 4-tert-Butyl-N-{3-[6-(1,4-dioxa-spiro[4.5]dec-7-en-8-yl)-7H-pyrrolo[2,3-d]pyrimidin-4-yl]-2-hydroxymethyl-phenyl}-benzamide] |
| 64 nM | Cc1c(NC(=O)c2ccc(C(C)(C)C)cc2)cccc1-c1ncnc2[nH]c(C3=CCS(=O)(=O)CC3)cc12 [Example 53, 4-tert-Butyl-N-{3-[6-(3,6-dihydro-1,1-dioxido-2H-thiopyran-4-yl)-7H-pyrrolo[2,3-d]pyrimidin-4-yl]-2-methyl-phenyl}-benzamide] |
| 2 nM | Cc1c(NC(=O)c2ccc(N(C)C(C)C)cc2)cc(F)cc1-c1ncnc2[nH]c(C3=CCN(C(=O)N(C)C)CC3)cc12 [Example 4] |
| 6 nM | CN(C)C(=O)N1CC=C(c2cc3c(-c4ccc(F)c(NC(=O)c5ccc(C(C)(C)CO)cc5)c4)ncnc3[nH]2)CC1 [Example 21, 4-(4-{4-Fluoro-3-[4-(2-hydroxy-1,1-dimethyl-ethyl)-benzoylamino]-phenyl}-7H-pyrrolo[2,3-d]pyrimidin-6-yl)-3,6-dihydro-2H-pyridine-1-carboxylic acid dimethylamide] |
| 3 nM | Cc1c(NC(=O)c2ccc(N3CCCCC3)cc2)cc(F)cc1-c1ncnc2[nH]c(C3=CCN(C(=O)N(C)C)CC3)cc12 [Example 7, 4-{4-[5-Fluoro-2-methyl-3-(4-piperidin-1-yl-benzoylamino)-phenyl]-7H-pyrrolo[2,3-d]pyrimidin-6-yl}-3,6-dihydro-2H-pyridine-1-carboxylic acid dimethylamide] |

| SMILES | IC50 |
| --- | --- |
| Cc1c(NC(=O)N2CC(OC(C)(C)C)C2)cc(F)cc1-c1ncnc2[nH]c(C3=CCOCC3)cc12 [Example 61, 3-tert-Butoxy-azetidine-1-carboxylic acid {3-[6-(3,6-dihydro-2H-pyran-4-yl)-7H-pyrrolo[2,3-d]pyrimidin-4-yl]-5-fluoro-2-methyl-phenyl}-amide] | 6 nM |
| Cc1c(-c2ncnc3[nH]c(C4=CCN(C(=O)N(C)C)CC4)cc23)ccc(F)c1NC(=O)N1CC(OC(C)(C)C)C1 [Example 63, 4-(4-{3-[(3-tert-Butoxy-azetidine-1-carbonyl)-amino]-4-fluoro-2-methyl-phenyl}-7H-pyrrolo[2,3-d]pyrimidin-6-yl)-3,6-dihydro-2H-pyridine-1-carboxylic acid dimethylamide] | 2 nM |

From patent US9233111B2, “Pyrrolo pyrimidine derivatives” (NOVARTIS AG, priority 2011, dated 2016)
